Data: US12163955B2, “Antibodies to methotrexate and uses thereof” (Ark Diagnostics, Inc., priority 2023, dated 2024)
Blank lines part the entries; values can stand above or below the molecule they belong to.

Experiments:
[1] = cited from earlier work
[2] = MTX Assay calibration curve (homogeneous enzyme immunoassay, Beckman AU680); type: biochemical
Method: The top clones (281H3/28K1, 321H1/32K2 and 64H1/64K1) were selected based on performance for larger scale production and purification (Table 5). These clones were then used for further studies. To make the initial antibody reagent, both clones were diluted to 100 μg/mL with antibody diluent. Then a 1:4 ratio mixture of […] to Clone 64H1/64K1 was made and spiked into antibody diluent. […]
The MTX Assay calibration range is from 0.00 to 1.30 μM. Calibration curves were generated on the Beckman AU680 by assaying each calibrator level in quadruplicate. The Beckman AU680 analyzer performs the nonlinear data analysis automatically using multi-parameter curve-fit math model. Typical calibrator separations are shown for the MTX Assay in Table 6. […] The calculation for feasibility lot percent modulation is shown below: • Max Rate=640.3 mA/min. • Negative Calibrator Rate=358.5 mA/min. • High Calibrator Rate (1.30 μM)=608.7 mA/min. • Total Curve ΔmA=High Cal. Rate−Negative Cal.

MTX antibodies [3] = experiment: Specificity in absence of MTX, cross-reactivity (MTX Assay); type: binding, rabbit; conditions: Trimethoprim 150 μmol/L, Triamterene 25 μmol/L; for % Cross-reactivity: no MTX
MTX antibodies [4] = experiment: as above; type: binding, rabbit; conditions: no MTX
Text: “Cross-reactivity” refers to the reaction of an antibody with an antigen that was not used to induce that antibody. “Cross-reactivity” may be determined in a quantitative immunoassay by establishing a standard curve using known dilutions of the target analyte. The standard curve is then used to calculate the apparent concentration of the interfering substance present in various known amounts in samples assayed under similar condition. The cross-reactivity is the apparent concentration divided by the actual concentration multiplied by 100.
[…] Solvent controls were also prepared and tested.
Cross-reactivity with DAMPA was also tested DAMPA stock solution was spiked into negative serum pool without the presence of MTX.

[5] = single dose; within 15 minutes; cited from earlier work

- Calibration curve separation ([2]; 0.00-0.05 μM): 21.5 mA/min
- Calibration curve separation ([2]; 0.00-1.30 μM): 250.2 mA/min
- Calibration curve separation ([2]; 0.05-0.15 μM): 44.9 mA/min
- Calibration curve separation ([2]; 0.15-0.35 μM): 79.7 mA/min
- Calibration curve separation ([2]; 0.35-0.65 μM): 61.0 mA/min
- Calibration curve separation ([2]; 0.65-1.30 μM): 43.1 mA/min
- Calibrator rate ([2]; Calibrator Conc. 0.00 μM): 358.5 mA/min
- Calibrator rate ([2]; Calibrator Conc. 0.05 μM): 380.0 mA/min
- Calibrator rate ([2]; Calibrator Conc. 0.15 μM): 424.8 mA/min
- Calibrator rate ([2]; Calibrator Conc. 0.35 μM): 504.6 mA/min
- Calibrator rate ([2]; Calibrator Conc. 0.65 μM): 565.6 mA/min
- Calibrator rate ([2]; Calibrator Conc. 1.30 μM): 608.7 mA/min
Molecule: CN(Cc1cnc2nc(N)nc(N)c2n1)c1ccc(C(=O)N[C@@H](CCC(=O)O)C(=O)O)cc1 [MTX, (2S)-2-[[4-[(2,4-diaminopteridin-6-yl)methyl-methylamino]benzoyl]amino]pentanedioic acid]
- MTX serum concentration reached ([1]; following a 4-hour infusion, pediatric patients with osteosarcoma): up to 3100 μmol/L
- MTX serum concentration ([1]; high dose therapy for osteosarcoma): exceed 1000 μmol/L
- MTX decay curve level ([1]; osteosarcoma, 72 hours): less than 0.3 μmol/L

Molecule: Nc1nc(N)c2nc(-c3ccccc3)c(N)nc2n1 [Triamterene]
- No MTX Mean (MTX antibodies [3]): 0.009 µmol/L
- % Cross-reactivity (MTX antibodies [3]): 0.03%

Molecule: CN(Cc1cnc2nc(N)nc(N)c2n1)c1ccc(C(=O)O)cc1 [DAMPA, 4-(((2,4-diaminopteridin-6-yl)methyl)(methyl)amino)benzoic acid]
- Apparent Conc. (MTX antibodies [4]; DAMPA 0.04 μmol/L in negative serum pool): 0.023 µmol/L
- % Cross-reactivity (MTX antibodies [4]; DAMPA 0.04 μmol/L): 57.50%
- Apparent Conc. (MTX antibodies [4]; DAMPA 0.10 μmol/L in negative serum pool): 0.052 µmol/L
- % Cross-reactivity (MTX antibodies [4]; DAMPA 0.10 μmol/L): 51.50%
- Apparent Conc. (MTX antibodies [4]; DAMPA 0.50 μmol/L in negative serum pool): 0.215 µmol/L
- % Cross-reactivity (MTX antibodies [4]; DAMPA 0.50 μmol/L): 42.93%
- Apparent Conc. (MTX antibodies [4]; DAMPA 0.80 μmol/L in negative serum pool): 0.187 µmol/L
- % Cross-reactivity (MTX antibodies [4]; DAMPA 0.80 μmol/L): 23.42%
- Apparent Conc. (MTX antibodies [4]; DAMPA 1.00 μmol/L in negative serum pool): 0.188 µmol/L
- % Cross-reactivity (MTX antibodies [4]; DAMPA 1.00 μmol/L): 18.80%

Molecule: COc1cc(Cc2cnc(N)nc2N)cc(OC)c1OC [Trimethoprim]
- No MTX Mean (MTX antibodies [3]): 0.000 µmol/L
- % Cross-reactivity (MTX antibodies [3]): 0.00%

B1: glucarpidase: antidote that converts MTX into DAMPA and glutamate (protein, UniProt P06621 23-415, looked up)
Carboxypeptidase G2: ALAQKRDNVLFQAATDEQPAVIKTLEKLVNIETGTGDAEGIAAAGNFLEAELKNLGFTVTRSKSAGLVVGDNIVGKIKGRGGKNLLLMSHMDTVYLKGILAKAPFRVEGDKAYGPGIADDKGGNAVILHTLKLLKEYGVRDYGTITVLFNTDEEKGSFGSRDLIQEEAKLADYVLSFEPTSAGDEKLSLGTSGIAYVQVNITGKASHAGAAPELGVNALVEASDLVLRTMNIDDKAKNLRFNWTIAKAGNVSNIIPASATLNADVRYARNEDFDAAMKTLEERAQQKKLPEADVKVIVTRGRPAFNAGEGGKKLVDKAVAYYKEAGGTLGVEERTGGGTDAAYAALSGKPVIESLGLPGFGYHSDKAEYVDISAIPRRLYMAARLIMDLGAGK
- reduction of plasma MTX concentrations [5]: ≥ 97%
